According to patent publication US6132711A, “Enzymatic antioxidant of allene oxide for lipid peroxidation in biological systems” (Arizona Board of Regents, priority 1997, dated 2000):
Several values for one entry are separate records, joined by “and”; a condition that tells them apart may be missing. Equal entries are not always repeated. Blank lines part the entries; values can stand above or below the molecule they belong to.

Columns and labels:
AOS [1] = biological target: T1, AOS (Parthenium argentatum, UniProt Q40778); assay: Fluorescence spectroscopy of rubber particles incubated with AOS inhibitors; type: biochemical, guayule; set-up: from tissue; host or cells: washed rubber particles of guayule, carrying the endogenous AOS; conditions: native rubber particles incubated with 1 mM inhibitor
T1 sequence (Q40778 1-473): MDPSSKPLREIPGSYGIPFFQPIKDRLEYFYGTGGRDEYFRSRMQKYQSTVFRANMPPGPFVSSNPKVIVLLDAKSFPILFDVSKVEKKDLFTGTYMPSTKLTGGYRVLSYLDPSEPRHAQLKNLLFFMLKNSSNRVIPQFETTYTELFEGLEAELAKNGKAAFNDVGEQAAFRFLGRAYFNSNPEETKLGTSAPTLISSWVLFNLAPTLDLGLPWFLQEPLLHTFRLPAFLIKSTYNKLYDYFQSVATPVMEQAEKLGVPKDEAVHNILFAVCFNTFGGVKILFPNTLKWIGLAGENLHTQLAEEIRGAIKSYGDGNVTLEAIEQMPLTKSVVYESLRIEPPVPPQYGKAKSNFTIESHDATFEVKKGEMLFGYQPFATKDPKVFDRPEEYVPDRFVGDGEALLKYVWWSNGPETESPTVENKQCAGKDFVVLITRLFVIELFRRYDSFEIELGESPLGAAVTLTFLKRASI
Protocol: Rubber particle suspensions containing approximately 5×10^10 particles ml^-1 or 100 μg μl^-1 rubber were extracted for lipids and analyzed according to Yao et al., J Cell Biochem 51: 488-494 (1993); Eldred, Anal. Biochem. 64: 23-36 (1987), Malshet et al., Lipids 9: 328-332 (1974) and above (see sec. 8.1) using a FluoroMax spectrofluoromoeter (JY/SPEX Instruments SA, Inc.) with an excitation maxima of 300 nm and an emission maxima of 405 nm. Background fluorescence was automatically subtracted. […] The effect of pH on relative fluorescence spectroscopy was performed. The effect of pH on relative fluorescence intensities was also determined on lipids extracted from rubber particle lipids according to Malshet et al., Lipids 9: 328-332 (1974).

AOS [2] = biological target: T1, AOS; assay: Superoxide/colorimetry (riboflavin/TEMED/NBT) assay; conditions: for NBT color after superoxide: rubber particles incubated with inhibitor
AOS [3] = biological target: T1, AOS; conditions: for fluorescence over 24 hr, AOS inhibited and antioxidant present: rubber particles, 1 mM ASA plus 1% antioxidant
rubber transferase (RuT) = assay: Rubber transferase assay in washed rubber particles ([14C]-IPP incorporation); type: biochemical, guayule; set-up: inhibition of RuT activity / inhibition of rubber biosynthesis: concentration or dose not given beside the values
Protocol: RuT assays were performed according to Cornish and Backhaus, Phytochemistry 29: 3809-3813 (1990) using a final reaction volume of 500 μl containing, at final concentration, 3.5 mM MgCl2, 2.5 mM MnCl2 26.7 μM FPP, 85 μM IPP and 1.48 μCi[^14 C]-IPP (sp. act. 57 mCi mM^-1 NEN DuPont) in 50 mM potassium phosphate buffer, pH 8.0. The reaction was initiated by the addition of 200 μl of fresh, triple-washed rubber particle suspensions containing 10-20 mg rubber. Control reactions were made to test IPP incorporation into rubber by omitting FPP or adding 50 mM EDTA to the reaction (Cornish and Backhaus, Phytochem. 29: 3809-3813 (1990)). To control AOS activity, one or more of the following was added to the reaction mix (final concentration): 0.5 to 2 mM SA, 0.5 to 2 mM ASA, 11.2 μM riboflavin plus 11.2 mM TEMED, 0.003% H2 O2, 2.0 U type II porcine pancreatic lipase (Sigma #L-3126) or 9450 U type V soybean lipoxygenase (Sigma #L-6632). These additions were made directly to the washed rubber particles and incubated for 20 min before adding to them to the reaction mix. In reactions that required dark conditions (to prevent the formation of superoxide), assay tubes were foil wrapped. […] H2 O2 was added directly to the particles and incubated for at least 20 min before adding SA or ASA. All RuT assays were run at 15° C. for 16 hours and activity was determined according to Cornish and Backhaus, Phytochemistry 29: 3809-3813 (1990) using liquid scintillation spectroscopy with toluene-based scintillant.

AOS [4] = biological target: T1, AOS; assay: Conjugated dienes in lipids extracted from rubber particles incubated with H2O2 (A234); type: biochemical, guayule; set-up: from tissue; host or cells: washed rubber particles of guayule, carrying the endogenous AOS; conditions: 1 mM inhibitor, 0.05% H2O2
Source text: Lipids from these particles were extracted and analyzed spectrophotometrically at 234 nm according to Aust, Lipid peroxidation, In: Greenwald R (ed) CRC Handbook of Methods for Oxygen Radical Research, CRC Press, Boca Raton, pp. 203-207 (1985).

[5] = tested on: linoleic acid conjugated dienes; assay: UV spectrophotometry of superoxide-induced linoleic acid conjugated dienes (A234); type: biochemical, guayule; conditions: AOS preincubated with 1 mM ASA, then linoleic acid + riboflavin/TEMED
Protocol: Likewise, the effect of superoxide, produced by the riboflavin/TEMED mixture and light, on lipid peroxidation was determined. […] The mixture was exposed to light and scanned in a UV spectrophotometer at 200 to 300 nm at 10 sec intervals for 2 minutes and again at 5 and 10 min. The effect of AOS on superoxide-inducedlinoleic hydroperoxides was determined using partially pure AOS solubilized from fresh rubber particles using the CHAPS extraction and filtration procedure (Pan et al., J Biol Chem 270: 8487-8494, 1995), which removed all remaining rubber. One μg partially pure AOS was added to oxidized linoleic acid and UV scanned at 2 minute intervals.
This mixture was scanned at A234 followed by addition of riboflavin/TEMED and exposure to 10 min. of light, to produce superoxide. The mixture was rescanned at 10 min intervals.

[6] = salicylate + H2O2 in place of superoxide
[7] = salicylate + non-photoreduced riboflavin/TEMED (no superoxide), compared to controls
[8] = salicylate + superoxide (riboflavin/TEMED plus light)

Molecule: O=C(O)c1cc(S(=O)(=O)O)ccc1O [5SSA, 5-sulfosalicylic acid]
- fluorescence of rubber particles (AOS [1]): did not fluoresce

Molecule: CC(=O)Oc1ccccc1C(=O)O [ASA, acetylsalicylic acid]
- NBT color after superoxide (AOS [2]): yellow
- fluorescence of rubber particles (AOS [1]): striking increase in fluorescence
- fluorescence over 24 hr (AOS [3]; rubber particles in presence of 1 mM ASA): fluorescence increased up to 12 hours and then plateaued
- RuT activity (rubber transferase (RuT); 0.5 mM inhibitor, riboflavin/TEMED + dark (no superoxide)): 599.3 ± 11.8 nmol IPP mg^-1 dry rubber 16 hr^-1
- RuT activity (rubber transferase (RuT); 1 mM inhibitor, riboflavin/TEMED + dark (no superoxide)): 421.6 ± 105.4 nmol IPP mg^-1 dry rubber 16 hr^-1
- inhibition of RuT activity (rubber transferase (RuT); [6]): 89%
- inhibition of RuT activity (rubber transferase (RuT); [7]): 20%
- inhibition of RuT activity (rubber transferase (RuT); [8]): 88%
- conjugated diene formation in extracted lipids (A234) (AOS [4]): Conjugated dienes formed only when AOS was inhibited by ASA in the presence of H2 O2
- A234 on exposure to superoxide, AOS first incubated with inhibitor [5]: notable increase in A234

Molecule: [C-]#[O+] [CO, carbon monoxide]
- restoration of AOS activity (AOS [2]; CO-bound-AOS in rubber particles, high light 1 min): partial restoration of AOS
- restoration of AOS activity (AOS [2]; CO-bound-AOS in rubber particles, high light 5 min): maximum restoration of AOS activity
- AOS activity (AOS [2]; CO-bound-AOS in rubber particles, more than 5 min high light): reduction in AOS activity
- NBT color when CO inhibition was reversed by strong light (AOS [2]; CO-treated rubber particles, strong light): grayish yellow
- NBT color after superoxide (AOS [2]): yellow

Molecule: O=C(O)c1ccccc1O [SA, salicylic acid]
- NBT color after superoxide (AOS [2]): yellow
- fluorescence of rubber particles (AOS [1]): Identical fluorescence patterns
- drop in RuT activity (rubber transferase (RuT); 1 mM SA alone, 960 min): 10-30%
- RuT activity (rubber transferase (RuT); 1 mM SA alone, Experiment 1): 402.5 ± 18.2 nmol IPP mg^-1 dry rubber 16 hr^-1
- RuT activity (rubber transferase (RuT); 1 mM SA alone, Experiment 2): 320.4 ± 4.5 nmol IPP mg^-1 dry rubber 16 hr^-1
- RuT activity (rubber transferase (RuT); 1 mM SA alone, Experiment 3): 315.9 ± 10.6 nmol IPP mg^-1 dry rubber 16 hr^-1
- RuT activity (rubber transferase (RuT); 1 mM inhibitor, riboflavin/TEMED + light (superoxide)): 74.2 ± 1.29 nmol IPP mg^-1 dry rubber 16 hr^-1 and 98.3 ± 1.56 nmol IPP mg^-1 dry rubber 16 hr^-1 and 74.2 ± 1.3 nmol IPP mg^-1 dry rubber 16 hr^-1
- RuT activity (rubber transferase (RuT); 1.5 mM inhibitor, no superoxide (dark)): 236.7 ± 3.0 nmol IPP mg^-1 dry rubber 16 h
- RuT activity (rubber transferase (RuT); 1.5 mM inhibitor, superoxide (light)): 105.3 ± 3.2 nmol IPP mg^-1 dry rubber 16 h
- RuT activity (rubber transferase (RuT); 2 mM SA, photo reduced and non-photo reduced riboflavin/TEMED): severely inhibited
- RuT activity (rubber transferase (RuT); 2 mM inhibitor, no superoxide (dark)): 25.1 ± 1.2 nmol IPP mg^-1 dry rubber 16 h
- RuT activity (rubber transferase (RuT); 2 mM inhibitor, superoxide (light)): 18.5 ± 9.24 nmol IPP mg^-1 dry rubber 16 hr^-1
- inhibition of RuT activity (rubber transferase (RuT); [6]): 89%
- inhibition of RuT activity (rubber transferase (RuT); [7]): 20%
- inhibition of RuT activity (rubber transferase (RuT); [8]): 88%

Continued, values first:

- fluorescence over 24 hr, AOS inhibited and antioxidant present (AOS [3]): slight increase in fluorescence
Molecule: Cc1cc(C(C)(C)C)c(O)c(C(C)(C)C)c1 [BHT]

- fluorescence of rubber particles (AOS [1]): did not fluoresce
Molecule: OCc1ccccc1O[C@@H]1O[C@H](CO)[C@@H](O)[C@H](O)[C@H]1O [SAL, salicin]

- fluorescence over 24 hr, AOS inhibited and antioxidant present (AOS [3]): slight increase in fluorescence
Molecule: Cc1c(C)c2c(c(C)c1O)CCC(C)(CCCC(C)CCCC(C)CCCC(C)C)O2 (stereo not drawn) [α-tocopherol]

- RuT activity (rubber transferase (RuT); lipoxygenase alone): activity similar to positive controls
- RuT activity (rubber transferase (RuT); lipoxygenase alone, listed as Lipoxygenase): did not appear to affect RuT activity
- inhibition of rubber biosynthesis (rubber transferase (RuT); lipoxygenase treatment and AOS inhibition): 30%
B1: lipoxygenase: type V soybean lipoxygenase (Sigma #L-6632) (protein, UniProt P08170 1-839, looked up)
Seed linoleate …: MFSAGHKIKGTVVLMPKNELEVNPDGSAVDNLNAFLGRSVSLQLISATKADAHGKGKVGKDTFLEGINTSLPTLGAGESAFNIHFEWDGSMGIPGAFYIKNYMQVEFFLKSLTLEAISNQGTIRFVCNSWVYNTKLYKSVRIFFANHTYVPSETPAPLVSYREEELKSLRGNGTGERKEYDRIYDYDVYNDLGNPDKSEKLARPVLGGSSTFPYPRRGRTGRGPTVTDPNTEKQGEVFYVPRDENLGHLKSKDALEIGTKSLSQIVQPAFESAFDLKSTPIEFHSFQDVHDLYEGGIKLPRDVISTIIPLPVIKELYRTDGQHILKFPQPHVVQVSQSAWMTDEEFAREMIAGVNPCVIRGLEEFPPKSNLDPAIYGDQSSKITADSLDLDGYTMDEALGSRRLFMLDYHDIFMPYVRQINQLNSAKTYATRTILFLREDGTLKPVAIELSLPHSAGDLSAAVSQVVLPAKEGVESTIWLLAKAYVIVNDSCYHQLMSHWLNTHAAMEPFVIATHRHLSVLHPIYKLLTPHYRNNMNINALARQSLINANGIIETTFLPSKYSVEMSSAVYKNWVFTDQALPADLIKRGVAIKDPSTPHGVRLLIEDYPYAADGLEIWAAIKTWVQEYVPLYYARDDDVKNDSELQHWWKEAVEKGHGDLKDKPWWPKLQTLEDLVEVCLIIIWIASALHAAVNFGQYPYGGLIMNRPTASRRLLPEKGTPEYEEMINNHEKAYLRTITSKLPTLISLSVIEILSTHASDEVYLGQRDNPHWTSDSKALQAFQKFGNKLKEIEEKLVRRNNDPSLQGNRLGPVQLPYTLLYPSSEEGLTFRGIPNSISI
